Biological target: T1, BRM (Homo sapiens, UniProt P51531)
T1 construct: In-Cell Western Screen of BRM Degradation in SW1573 Cells; endogenous in cells; host or cells: SW1573
Test: In-cell Western screen of BRM degradation in SW1573 cells (Dmax and DC50)
Assay type: cell-based
Settings: BRM degradation, SW1573 cells; for DC50: read-out: DC50; for Dmax: tested at the top concentration of between 0.3 and 10 μM, read-out: Dmax (%) (% degraded)
Outline: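 SW1573 cells were treated overnight (18-20 hours) with compound at 0.1% final DMSO. They were then PFA-fixed, permeabilised with Triton X-100 and immunostained with 800 nm/680 nm secondary antibodies. BRM signal was quantified by LI-COR in-cell Western imaging to derive Dmax and DC50.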

T1 sequence (P51531 whole entry): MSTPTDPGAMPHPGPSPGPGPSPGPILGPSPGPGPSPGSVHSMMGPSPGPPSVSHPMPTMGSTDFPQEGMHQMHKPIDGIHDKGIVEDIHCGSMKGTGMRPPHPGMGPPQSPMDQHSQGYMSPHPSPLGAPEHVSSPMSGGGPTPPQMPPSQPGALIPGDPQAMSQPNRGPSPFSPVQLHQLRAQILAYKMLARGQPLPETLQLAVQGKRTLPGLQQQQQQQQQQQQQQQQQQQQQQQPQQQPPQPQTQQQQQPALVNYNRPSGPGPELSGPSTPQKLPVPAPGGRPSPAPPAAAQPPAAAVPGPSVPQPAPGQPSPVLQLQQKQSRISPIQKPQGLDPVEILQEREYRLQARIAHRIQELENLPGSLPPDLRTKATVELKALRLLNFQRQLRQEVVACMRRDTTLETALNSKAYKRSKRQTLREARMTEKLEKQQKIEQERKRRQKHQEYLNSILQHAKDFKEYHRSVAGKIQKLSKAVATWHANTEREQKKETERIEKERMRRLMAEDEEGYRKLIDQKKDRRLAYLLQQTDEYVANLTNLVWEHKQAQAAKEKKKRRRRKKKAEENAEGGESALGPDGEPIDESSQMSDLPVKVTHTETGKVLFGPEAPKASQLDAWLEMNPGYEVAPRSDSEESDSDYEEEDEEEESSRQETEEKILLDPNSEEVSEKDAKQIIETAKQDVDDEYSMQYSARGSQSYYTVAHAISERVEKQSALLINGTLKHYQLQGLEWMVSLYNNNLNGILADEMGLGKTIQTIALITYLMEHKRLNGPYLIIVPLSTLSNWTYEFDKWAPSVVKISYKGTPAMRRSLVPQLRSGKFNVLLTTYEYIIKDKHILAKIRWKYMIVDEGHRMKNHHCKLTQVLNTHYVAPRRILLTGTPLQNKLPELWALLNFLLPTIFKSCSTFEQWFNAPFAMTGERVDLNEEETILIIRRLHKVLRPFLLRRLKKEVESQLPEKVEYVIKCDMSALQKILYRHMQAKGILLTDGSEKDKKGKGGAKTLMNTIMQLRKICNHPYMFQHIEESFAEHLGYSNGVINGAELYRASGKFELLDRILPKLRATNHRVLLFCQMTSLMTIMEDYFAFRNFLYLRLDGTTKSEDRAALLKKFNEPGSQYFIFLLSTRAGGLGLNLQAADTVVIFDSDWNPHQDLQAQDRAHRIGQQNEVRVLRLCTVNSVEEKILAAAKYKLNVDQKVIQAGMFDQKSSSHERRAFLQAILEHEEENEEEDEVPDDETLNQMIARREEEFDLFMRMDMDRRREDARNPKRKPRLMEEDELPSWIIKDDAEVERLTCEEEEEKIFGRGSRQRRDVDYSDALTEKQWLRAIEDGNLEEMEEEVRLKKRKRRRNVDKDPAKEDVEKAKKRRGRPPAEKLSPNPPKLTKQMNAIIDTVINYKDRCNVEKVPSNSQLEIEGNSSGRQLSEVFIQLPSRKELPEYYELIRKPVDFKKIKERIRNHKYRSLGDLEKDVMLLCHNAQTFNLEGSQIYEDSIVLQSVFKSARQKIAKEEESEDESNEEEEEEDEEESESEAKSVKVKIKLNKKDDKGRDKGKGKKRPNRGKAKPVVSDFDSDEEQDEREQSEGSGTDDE

Row | SMILES | DC50 | Dmax
1 | Cc1ncsc1-c1ccc([C@H](C)NC(=O)[C@@H]2C[C@@H](O)CN2C(=O)[C@@H](NC(=O)COCCN2CCC(O[C@H]3C[C@H](Oc4cc(N5C6CCC5CN(c5cc(-c7ccccc7O)nnc5N)C6)ccn4)C3)CC2)C(C)(C)C)cc1 [compound 183, (2S,4R)-1-((2S)-2-(2-(2-(4-((1r,3S)-3-((4-(3-(3-amino-6-(2-hydroxyphenyl)pyridazin-4-yl)-3,8-diazabicyclo[3.2.1]octan-8-yl)pyridin-2-yl)oxy)cyclobutoxy)piperidin-1-yl)ethoxy)acetamido)-3,3-dimethylbutanoyl)-4-hydroxy-N-((S)-1-(4-(4-methylthiazol-5-yl)phenyl)ethyl)pyrrolidine-2-carboxamide] | < 2.5 nM | > 75%
2 | COCc1ncsc1-c1ccc([C@H](C)NC(=O)[C@@H]2C[C@@H](O)CN2C(=O)[C@H](c2cc(OCCN3CCC(O[C@H]4C[C@H](Oc5cc(N6C7CCC6CN(c6cc(-c8ccccc8O)nnc6N)C7)ccn5)C4)CC3)no2)C(C)C)cc1 [compound 184, (2S,4R)-1-((2S)-2-(3-(2-(4-((1r,3S)-3-((4-(3-(3-amino-6-(2-hydroxyphenyl)pyridazin-4-yl)-3,8-diazabicyclo[3.2.1]octan-8-yl)pyridin-2-yl)oxy)cyclobutoxy)piperidin-1-yl)ethoxy)isoxazol-5-yl)-3-methylbutanoyl)-4-hydroxy-N-((S)-1-(4-(4-(methoxymethyl)thiazol-5-yl)phenyl)ethyl)pyrrolidine-2-carboxamide] | > 30 nM | –
3 | COCc1ncsc1-c1ccc([C@H](C)NC(=O)[C@@H]2C[C@@H](O)CN2C(=O)[C@@H](c2cc(OCCN3CCC(O[C@H]4C[C@H](Oc5cc(N6C7CCC6CN(c6cc(-c8ccccc8O)nnc6N)C7)ccn5)C4)CC3)no2)C(C)C)cc1 [compound 185, (2S,4R)-1-((2R)-2-(3-(2-(4-((1r,3R)-3-((4-(3-(3-amino-6-(2-hydroxyphenyl)pyridazin-4-yl)-3,8-diazabicyclo[3.2.1]octan-8-yl)pyridin-2-yl)oxy)cyclobutoxy)piperidin-1-yl)ethoxy)isoxazol-5-yl)-3-methylbutanoyl)-4-hydroxy-N-((S)-1-(4-(4-(methoxymethyl)thiazol-5-yl)phenyl)ethyl)pyrrolidine-2-carboxamide] | < 2.5 nM | > 75%
4 | Cc1ncsc1-c1ccc([C@H](C)NC(=O)[C@@H]2C[C@@H](O)CN2C(=O)[C@H](c2cc(OC/C=C/c3ccc(O[C@H]4C[C@H](Oc5cc(N6C7CCC6CN(c6cc(-c8ccccc8O)nnc6N)C7)ccn5)C4)cn3)no2)C(C)C)cc1 [compound 186, (2S,4R)-1-((2S)-2-(3-(((E)-3-(5-((1r,3S)-3-((4-(3-(3-amino-6-(2-hydroxyphenyl)pyridazin-4-yl)-3,8-diazabicyclo[3.2.1]octan-8-yl)pyridin-2-yl)oxy)cyclobutoxy)pyridin-2-yl)allyl)oxy)isoxazol-5-yl)-3-methylbutanoyl)-4-hydroxy-N-((S)-1-(4-(4-methylthiazol-5-yl)phenyl)ethyl)pyrrolidine-2-carboxamide] | 10 to 30 nM | > 75%
5 | Cc1ncsc1-c1ccc([C@H](C)NC(=O)[C@@H]2C[C@@H](O)CN2C(=O)[C@H](c2cc(OCCN3CCN(CC#CCN4CCOC5(CCN(c6cc(-c7ccccc7O)nnc6N)CC5)C4)CC3)no2)C(C)C)cc1 [compound 187, (2S,4R)-1-((S)-2-(3-(2-(4-(4-(9-(3-amino-6-(2-hydroxyphenyl)pyridazin-4-yl)-1-oxa-4,9-diazaspiro[5.5]undecan-4-yl)but-2-yn-1-yl)piperazin-1-yl)ethoxy)isoxazol-5-yl)-3-methylbutanoyl)-4-hydroxy-N-((S)-1-(4-(4-methylthiazol-5-yl)phenyl)ethyl)pyrrolidine-2-carboxamide] | > 30 nM | –
6 | Cc1ncsc1-c1ccc([C@H](C)NC(=O)[C@@H]2C[C@@H](O)CN2C(=O)[C@@H](c2cc(OCCN3CCN(CC#CCN4CCOC5(CCN(c6cc(-c7ccccc7O)nnc6N)CC5)C4)CC3)no2)C(C)C)cc1 [compound 188, (2S,4R)-1-((R)-2-(3-(2-(4-(4-(9-(3-amino-6-(2-hydroxyphenyl)pyridazin-4-yl)-1-oxa-4,9-diazaspiro[5.5]undecan-4-yl)but-2-yn-1-yl)piperazin-1-yl)ethoxy)isoxazol-5-yl)-3-methylbutanoyl)-4-hydroxy-N-((S)-1-(4-(4-methylthiazol-5-yl)phenyl)ethyl)pyrrolidine-2-carboxamide] | < 2.5 nM | > 75%
7 | Cc1ncsc1-c1ccc([C@H](C)NC(=O)[C@@H]2C[C@@H](O)CN2C(=O)[C@@H](c2cc(OCCN3CCC(O[C@H]4C[C@H](OCCn5cc(-c6cc(-c7ccccc7O)nnc6N)cn5)C4)CC3)no2)C(C)C)cc1 [compound 189, (2S,4R)-1-((R)-2-(3-(2-(4-((1r,3R)-3-(2-(4-(3-amino-6-(2-hydroxyphenyl)pyridazin-4-yl)-1H-pyrazol-1-yl)ethoxy)cyclobutoxy)piperidin-1-yl)ethoxy)isoxazol-5-yl)-3-methylbutanoyl)-4-hydroxy-N-((S)-1-(4-(4-methylthiazol-5-yl)phenyl)ethyl)pyrrolidine-2-carboxamide] | < 2.5 nM | > 75%
8 | Cc1ncsc1-c1ccc([C@H](C)NC(=O)[C@@H]2C[C@@H](O)CN2C(=O)[C@H](c2cc(CCCN3CCC(O[C@H]4C[C@H](Oc5cc(N6C7CCC6CN(c6cc(-c8ccccc8O)nnc6N)C7)ccn5)C4)CC3)no2)C(C)C)cc1 [compound 190, (2S,4R)-1-((2S)-2-(3-(3-(4-((1r,3S)-3-((4-(3-(3-amino-6-(2-hydroxyphenyl)pyridazin-4-yl)-3,8-diazabicyclo[3.2.1]octan-8-yl)pyridin-2-yl)oxy)cyclobutoxy)piperidin-1-yl)propyl)isoxazol-5-yl)-3-methylbutanoyl)-4-hydroxy-N-((S)-1-(4-(4-methylthiazol-5-yl)phenyl)ethyl)pyrrolidine-2-carboxamide] | > 30 nM | –
9 | Cc1ncsc1-c1ccc([C@H](C)NC(=O)[C@@H]2C[C@@H](O)CN2C(=O)[C@@H](c2cc(CCCN3CCC(O[C@H]4C[C@H](Oc5cc(N6C7CCC6CN(c6cc(-c8ccccc8O)nnc6N)C7)ccn5)C4)CC3)no2)C(C)C)cc1 [compound 191, (2S,4R)-1-((2R)-2-(3-(3-(4-((1r,3R)-3-((4-(3-(3-amino-6-(2-hydroxyphenyl)pyridazin-4-yl)-3,8-diazabicyclo[3.2.1]octan-8-yl)pyridin-2-yl)oxy)cyclobutoxy)piperidin-1-yl)propyl)isoxazol-5-yl)-3-methylbutanoyl)-4-hydroxy-N-((S)-1-(4-(4-methylthiazol-5-yl)phenyl)ethyl)pyrrolidine-2-carboxamide] | < 2.5 nM | > 75%
10 | Cc1ncsc1-c1ccc([C@H](C)NC(=O)[C@@H]2C[C@@H](O)CN2C(=O)C(c2cc(OCCN3CCN(CCO[C@H]4C[C@H](OCCN5CCOC6(CCN(c7cc(-c8ccccc8O)nnc7N)CC6)C5)C4)CC3)no2)C(C)C)cc1 (stereo partly drawn) [compound 192, (2S,4R)-1-(2-(3-(2-(4-(2-((1r,3r)-3-(2-(9-(3-amino-6-(2-hydroxyphenyl)pyridazin-4-yl)-1-oxa-4,9-diazaspiro[5.5]undecan-4-yl)ethoxy)cyclobutoxy)ethyl)piperazin-1-yl)ethoxy)isoxazol-5-yl)-3-methylbutanoyl)-4-hydroxy-N-((S)-1-(4-(4-methylthiazol-5-yl)phenyl)ethyl)pyrrolidine-2-carboxamide] | < 2.5 nM | > 75%
11 | Cc1cnn(C)c1-c1ccc([C@H](C)NC(=O)[C@@H]2C[C@@H](O)CN2C(=O)[C@H](c2cc(OCCN3CCN(CCOc4cc(N5C6CCC5CN(c5cc(-c7ccccc7O)nnc5N)C6)ccn4)CC3)no2)C(C)C)cc1 [compound 193, (2S,4R)-1-((2S)-2-(3-(2-(4-(2-((4-(3-(3-amino-6-(2-hydroxyphenyl)pyridazin-4-yl)-3,8-diazabicyclo[3.2.1]octan-8-yl)pyridin-2-yl)oxy)ethyl)piperazin-1-yl)ethoxy)isoxazol-5-yl)-3-methylbutanoyl)-N-((S)-1-(4-(1,4-dimethyl-1H-pyrazol-5-yl)phenyl)ethyl)-4-hydroxypyrrolidine-2-carboxamide] | > 30 nM | > 75%
12 | Cc1ncsc1-c1ccc([C@H](C)NC(=O)[C@@H]2C[C@@H](O)CN2C(=O)[C@H](c2cc(N3CCN(CCN4CCC(O[C@H]5C[C@H](Oc6cc(N7C8CCC7CN(c7cc(-c9ccccc9O)nnc7N)C8)ccn6)C5)CC4)CC3)no2)C(C)C)cc1 [compound 195, (2S,4R)-1-((2S)-2-(3-(4-(2-(4-((1r,3r)-3-((4-(3-(3-amino-6-(2-hydroxyphenyl)pyridazin-4-yl)-3,8-diazabicyclo[3.2.1]octan-8-yl)pyridin-2-yl)oxy)cyclobutoxy)piperidin-1-yl)ethyl)piperazin-1-yl)isoxazol-5-yl)-3-methylbutanoyl)-4-hydroxy-N-((S)-1-(4-(4-methylthiazol-5-yl)phenyl)ethyl)pyrrolidine-2-carboxamide] | > 30 nM | > 75%
13 | Cc1ncsc1-c1ccc([C@H](C)NC(=O)[C@@H]2C[C@@H](O)CN2C(=O)[C@H](c2cc(CCCOCCOCCOCCn3cc(-c4cc(-c5ccccc5O)nnc4N)cn3)no2)C(C)C)cc1 [compound 196, (2S,4R)-1-((S)-2-(3-(3-(2-(2-(2-(4-(3-amino-6-(2-hydroxyphenyl)pyridazin-4-yl)-1H-pyrazol-1-yl)ethoxy)ethoxy)ethoxy)propyl)isoxazol-5-yl)-3-methylbutanoyl)-4-hydroxy-N-((S)-1-(4-(4-methylthiazol-5-yl)phenyl)ethyl)pyrrolidine-2-carboxamide] | > 30 nM | > 75%

— patent US12539292B2, “BRM targeting compounds and associated methods of use” (Arvinas Operations, Inc., priority 2018, dated 2026)
